Values of other authors in PMC6721965 (Biochimica et biophysica acta. Biomembranes, 2019).

system: bacteria; settings: classification of parent peptides used for hybrid design; ref [4]-[8]

Sequence	Primary cellular localization pattern
ARDNKKTRIWPRHLQLAVRN [DesHDAP1]	membrane translocation
GIGKWLHSAKKFGKAFVGEIMNS [magainin 2]	membrane localization/permeabilization
KGRGKQGGKVRWKAKTRSS [parasin]	membrane localization/permeabilization
TRSSRAGLQWPVGRVHRLLRK [buforin II (BF2), buforin II]	membrane translocation
